This note sets out measurements from US20070299092A1 (Wyeth, priority 2004, published 2007).

The term melting point denotes the temperature of the solid-liquid transition. Usually inhibition stands for the drop in the measured response relative to a control, in per cent.

The target in series [1] is T1, human KDR (VEGF-receptor-2) (Homo sapiens, UniProt P35968).
T1 construct: beginning at Met-806; (5′-ATG GAT CCA GAT GM CTC CCA TTG) and ending at Val-1356; made in house
The experiment in a line: KDR kinase enzyme assay (DELFIA, KDR-IC-Flag, poly(Glu4-Tyr) peptide). In kind it is biochemical. The following applies: read-out: % Inhibition; for inhibition at 0.1 µM: Concentration 100 nM; for inhibition at 1 µM: Concentration 1000 nM.

The subject of series [2] is Human colon carcinoma DLD-1. The experiment in a line: Growth of human tumor xenografts in the nude mouse model. The following applies: for % T/C Day 7 / % T/C Day 14 / % T/C Day 21 / Relative tumor growth Day 7 / Relative tumor growth Day 14 / Relative tumor growth Day 21: DLD1, nude mouse. A general note: A xenograft is tissue or cells of one species grown in another, often human tumour cells in immunodeficient mice.
Method: Human colon carcinoma DLD-1 cells (American Type Culture Collection, Rockville, Md.) were grown in tissue culture in DMEM (Gibco/BRL, Gaithersburg, Md.) supplemented with 10% FBS (Gemini Bio-Products Inc., Calabasas, Calif.). Athymic nu/nu female mice (Charles River, Wilmington, Mass.) were injected subcutaneously (SC) in the flank area with 6×10^6 DLD-1 cells. When tumors attained a mass of between 75 and 100 mg, the mice were randomly assigned into treatment groups with 5 animals per group. Animals were treated orally (PO) once daily on days 1 through 20 post staging (day zero) with a dose range (50 to 100 mg/kg/dose) of compound prepared in 0.5% Methocel/0.5% Tween 80 or 0.5% Methocel/0.4% Tween 80 as the vehicle control. Tumor mass was determined every 7 days [(length×width^2)/2] for 21 days post-staging. Relative tumor growth (mean tumor mass on days 7, 14 and 21 divided by the mean tumor mass on day zero) was determined for each treatment group.

Series [3] has as its target KDR (Homo sapiens, UniProt P35968). The experiment in a line: cell-based. The following applies: read-out: % Inhibition of KDR kinase autophosphorylation in KDR15 cells, compound conc. 1000 nM.
Series [4] has as its system Human umbilical vein endothelial cells (HUVEC). The experiment in a line: HUVEC proliferation assay, VEGF-dependent growth ([3H]-thymidine incorporation). It is filed as cell-based. The procedure: Cells were plated into 96-well dishes (4000 cells per well) and allowed to attach overnight. HUVEC were rinsed one time with 100 μl of EBMc-V (EBM supplemented with all above components except serum or VEGF), then 50 ul of EBMc-V was added to cells. Compounds were prepared at 200× stocks in DMSO, diluted into EBMc-V media as 4× stocks, then 50 ul added to appropriate wells. Finally, 100 μl of 2×VEGF (100 ng/ml prepared in EBMc-V; final 50 ng/ml VEGF) was added to all VEGF-treated wells. EBMc-V (no VEGF) was added to negative control wells. Parallel compound-treated plates were prepared except that 100 μl of EGM2 media containing 2% serum but lacking VEGF (EGMc-V) was added. Cells were incubated for 4-5 days at 37° C.
DNA synthesis was assessed by thymidine incorporation. Cells were incubated for 5 hours in 1 μCi of [^3H]-thymidine (PerkinElmer) by addition of 10 ul of 0.1 μCi/ul thymidine prepared in PBS to each well. After incubation, media was aspirated and the cells trypsinized and collected onto a mat using a vacuum-based Micro Cell Harvester (Skatron). [^3H]-thymidine was counted in a liquid scintillation counter. Compounds evaluated for ability to inhibit VEGF-dependent growth of human umbilical vein endothelial cells (HUVEC).

Setting [5] is: Table 6, dose not given, administered on days 1 through 20.
Where [6] appears, read: Homo sapiens, HUVEC, conc. 10000 nM.
[7] abbreviates: 50 mg/kg/dose PO, days 1 through 20.
[8] abbreviates: 100 mg/kg/dose PO, days 1 through 20.

The structures appear in SMILES notation. Values joined by “and” are separate entries in the source; they are usually repeats but may differ in a detail not shown here. Equal values may be shown once. Read-outs that look alike come from different tables or passages of the source.

T1 sequence (P35968 806-1356): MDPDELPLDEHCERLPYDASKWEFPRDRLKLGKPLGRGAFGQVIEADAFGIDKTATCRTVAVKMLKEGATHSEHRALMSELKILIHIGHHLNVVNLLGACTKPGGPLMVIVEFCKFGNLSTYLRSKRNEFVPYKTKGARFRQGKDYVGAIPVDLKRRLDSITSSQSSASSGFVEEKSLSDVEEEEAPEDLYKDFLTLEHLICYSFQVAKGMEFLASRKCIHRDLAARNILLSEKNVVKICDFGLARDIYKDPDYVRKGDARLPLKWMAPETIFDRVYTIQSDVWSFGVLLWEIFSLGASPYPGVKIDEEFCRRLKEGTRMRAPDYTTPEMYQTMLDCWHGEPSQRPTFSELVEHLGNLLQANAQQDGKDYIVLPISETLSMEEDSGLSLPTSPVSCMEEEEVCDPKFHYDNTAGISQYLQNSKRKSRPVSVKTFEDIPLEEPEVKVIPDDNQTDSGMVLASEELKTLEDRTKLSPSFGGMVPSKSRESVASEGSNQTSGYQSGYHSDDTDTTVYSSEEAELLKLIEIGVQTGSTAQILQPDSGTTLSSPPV
Sequence of KDR (P35968 20-1356): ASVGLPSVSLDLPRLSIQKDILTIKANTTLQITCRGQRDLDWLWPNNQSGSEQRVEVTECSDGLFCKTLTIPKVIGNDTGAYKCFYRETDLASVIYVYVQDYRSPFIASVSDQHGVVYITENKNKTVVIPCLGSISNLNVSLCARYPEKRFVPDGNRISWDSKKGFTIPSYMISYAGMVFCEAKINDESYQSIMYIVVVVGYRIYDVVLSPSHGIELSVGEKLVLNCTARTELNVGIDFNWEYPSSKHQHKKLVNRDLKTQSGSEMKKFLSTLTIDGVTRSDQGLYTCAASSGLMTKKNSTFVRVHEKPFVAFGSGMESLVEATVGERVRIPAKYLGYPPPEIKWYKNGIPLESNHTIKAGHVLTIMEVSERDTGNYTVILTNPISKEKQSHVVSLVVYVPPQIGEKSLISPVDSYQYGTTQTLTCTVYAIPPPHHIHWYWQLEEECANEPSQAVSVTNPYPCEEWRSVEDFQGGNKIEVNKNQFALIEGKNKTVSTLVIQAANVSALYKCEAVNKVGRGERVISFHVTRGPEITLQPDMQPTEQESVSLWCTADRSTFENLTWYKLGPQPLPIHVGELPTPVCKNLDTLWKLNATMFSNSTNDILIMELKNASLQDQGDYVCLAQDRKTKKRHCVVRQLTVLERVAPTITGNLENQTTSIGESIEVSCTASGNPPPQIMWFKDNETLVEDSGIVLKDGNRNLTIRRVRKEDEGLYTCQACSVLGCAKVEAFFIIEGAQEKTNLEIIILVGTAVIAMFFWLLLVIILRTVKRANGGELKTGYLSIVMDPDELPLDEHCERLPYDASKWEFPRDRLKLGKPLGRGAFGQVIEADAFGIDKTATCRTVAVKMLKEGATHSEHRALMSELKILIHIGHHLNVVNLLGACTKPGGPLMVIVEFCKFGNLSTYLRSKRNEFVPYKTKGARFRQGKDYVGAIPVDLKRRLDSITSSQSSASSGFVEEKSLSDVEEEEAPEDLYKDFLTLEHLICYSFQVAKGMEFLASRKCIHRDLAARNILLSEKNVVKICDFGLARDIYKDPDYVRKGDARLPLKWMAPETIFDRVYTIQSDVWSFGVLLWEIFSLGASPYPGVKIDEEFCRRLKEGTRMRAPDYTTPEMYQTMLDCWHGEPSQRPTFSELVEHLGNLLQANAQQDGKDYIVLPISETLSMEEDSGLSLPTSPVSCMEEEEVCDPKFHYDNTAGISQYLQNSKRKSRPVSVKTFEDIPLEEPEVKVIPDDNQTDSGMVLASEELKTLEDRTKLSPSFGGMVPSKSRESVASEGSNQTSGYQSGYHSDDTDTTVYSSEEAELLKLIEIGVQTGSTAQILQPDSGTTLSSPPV

With `CNC1=CC(=O)C(Nc2ncnc3cc(OC)c(OC)cc23)=CC1=O` [Example 89, 2-[(6,7-dimethoxyquinazolin-4-yl)amino]-5-(methylamino)benzo-1,4-quinone], the melting point lay within 283 to 285 °C. In series [1] (ATP conc. 10 μM), the inhibition at 0.1 µM turned out to be 11% and the inhibition at 1 µM worked out at 18%. Also, in series [1] (ATP conc. 1000 μM), the inhibition at 1 µM is -12%.

Turning to `COCCOc1cc2ncnc(NC3=C(SC)C(=O)C(Cl)=C(OC)C3=O)c2cc1OC` [Example 190, 2-chloro-3-methoxy-5-{[6-methoxy-7-(2-methoxyethoxy)quinazolin-4-yl]amino}-6-(methylthio)benzo-1,4-quinone], in series [2] (setting [5]), the “% T/C Day 7” value is reported as 61%, the “% T/C Day 14” value was determined as 94%, the “% T/C Day 21” value is 76% and the “Relative tumor growth Day 7” value was 1.58. Also, in series [2] (setting [5]), the “Relative tumor growth Day 14” value is given as 7.41 and the “Relative tumor growth Day 21” value was determined as 10.74.

Molecule `COc1cc2c(NC3=CC(=O)C(Cl)=CC3=O)ncnc2cc1OCC1CCCCO1` (stereo not shown) [Example 345, 2-chloro-5-{[6-methoxy-7-(tetrahydro-2H-pyran-2-ylmethoxy)quinazolin-4-yl]amino}benzo-1,4-quinone] came in with a melting point of 215 to 220 °C.

The molecule `COCCOc1cc2ncnc(NC3=CC(=O)C(Br)=CC3=O)c2cc1OC` [Example 231, 2-bromo-5-{[6-methoxy-7-(2-methoxyethoxy)quinazolin-4-yl]amino}benzo-1,4-quinone] showed a melting point of 200 to 210 °C.

`COc1cc2ncnc(NC3=CC(=O)C(N(C)c4ccccc4)=CC3=O)c2cc1OC` [Example 85, 2-[(6,7-dimethoxyquinazolin-4-yl)amino]-5-[methyl(phenyl)amino]benzo-1,4-quinone] returned a melting point of 204 to 206 °C. In series [1] (ATP conc. 10 μM), the inhibition at 0.1 µM came out at 20% and the inhibition at 1 µM turned out to be 62%. Further, the inhibition at 1 µM in series [1] (ATP conc. 1000 μM) stood at 64%.

Regarding `COc1cc2ncnc(NC3=CC(=O)C(N4CCOCC4)=CC3=O)c2cc1OC` [Example 84, 2-[(6,7-dimethoxyquinazolin-4-yl)amino]-5-morpholin-4-ylbenzo-1,4-quinone], the melting point was 249 to 250 °C. Also, the inhibition at 1 µM in series [3] stood at 4%. In addition, the inhibition at 1 µM in series [1] (ATP conc. 10 μM) turned out to be 88%. In addition, the inhibition at 1 µM in series [1] (ATP conc. 1000 μM) was determined as 82%.

Molecule `COc1cc2ncnc(NC3=CC(=O)C(N(C)C)=CC3=O)c2cc1OC` [Example 88, 2-[(6,7-dimethoxyquinazolin-4-yl)amino]-5-(dimethylamino)benzo-1,4-quinone] came in with a melting point of 245 to 250 °C. Further, the inhibition at 1 µM in series [3] came to 32%. Besides, in series [1] (ATP conc. 10 μM), the inhibition at 0.1 µM is 28% and the inhibition at 1 µM turned out to be 63%. Moreover, the inhibition at 1 µM in series [1] (ATP conc. 1000 μM) came out at 48%.

`COCCOc1cc2ncnc(NC3=CC(=O)C(Oc4ccccc4)=CC3=O)c2cc1OC` registered a melting point of 177 to 180 °C.

Turning to `COCCOc1cc2ncnc(NC3=CC(=O)C(Oc4ccc(C)cc4)=CC3=O)c2cc1OC` [Example 92, 2-{[6-methoxy-7-(2-methoxyethoxy)quinazolin-4-yl]amino}-5-(4-methylphenoxy)benzo-1,4-quinone], the melting point was 171 to 172 °C. In addition, in series [1] (ATP conc. 10 μM), the inhibition at 0.1 µM turned out to be 92% and the inhibition at 1 µM is 93%. Moreover, the inhibition at 1 µM in series [1] (ATP conc. 1000 μM) came out at 97%.

In the case of `COCCOc1cc2ncnc(NC3=CC(=O)C(N4CCCC4C(F)(F)F)=CC3=O)c2cc1OC` (stereo not shown) [Example 150, 2-{[6-methoxy-7-(2-methoxyethoxy)quinazolin-4-yl]amino}-5-[2-(trifluoromethyl)pyrrolidin-1-yl]benzo-1,4-quinone], in series [2] (setting [5]), the “% T/C Day 7” value amounted to 63%, the “% T/C Day 14” value came to 82%, the “% T/C Day 21” value is 88% and the “Relative tumor growth Day 7” value was 1.62. Besides, in series [2] (setting [5]), the “Relative tumor growth Day 14” value came out at 6.45 and the “Relative tumor growth Day 21” value was 12.54.

In the case of `COCCOc1cc2ncnc(NC3=CC(=O)C(Oc4ccc(-n5ccnc5)cc4)=CC3=O)c2cc1OCCOC` [Example 341, 2-{[6,7-bis(2-methoxyethoxy)quinazolin-4-yl]amino}-5-[4-(1H-imidazol-1-yl)phenoxy]benzo-1,4-quinone], the melting point fell in the range of 109 to 115 °C.

Consider `COCCOC1=CC(=O)C(Nc2ncnc3cc(OCCOC)c(OC)cc23)=CC1=O`, for which the melting point was in the range of 211 to 212 °C.

`COc1cc2ncnc(NC3=CC(=O)C4(c5ccccc5)OC4C3=O)c2cc1OC` (stereo not shown) [Example 100, 4-[(6,7-dimethoxyquinazolin-4-yl)amino]-1-phenyl-7-oxabicyclo[4.1.0]hept-3-ene-2,5-dione] came in with a melting point of 252 to 253 °C.

On to `COCCOc1cc2ncnc(NC3=CC(=O)C(N4CCCCC4)=CC3=O)c2cc1OC` [Example 101, 2-{[6-methoxy-7-(2-methoxyethoxy)quinazolin-4-yl]amino}-5-piperidin-1-yl-benzo-1,4-quinone], for which the melting point fell in the range of 197 to 200 °C. Also, the inhibition at 0.1 µM in series [4] (Homo sapiens, HUVEC, conc. 100 nM) came out at 12%. In series [4] (Homo sapiens, HUVEC, conc. 1000 nM), the inhibition at 1 µM was determined as 36%. Further, in series [4] (setting [6]), the inhibition at 10 µM is 94%.

As for `COc1cc2ncnc(NC3=CC(=O)C(N4CCCCC4)=CC3=O)c2cc1OC` [Example 87, 2-[(6,7-dimethoxyquinazolin-4-yl)amino]-5-piperidin-1-ylbenzo-1,4-quinone], the melting point is 226 to 227 °C. In addition, in series [1] (ATP conc. 10 μM), the inhibition at 0.1 µM worked out at 19% and the inhibition at 1 µM was 72%. In addition, in series [1] (ATP conc. 1000 μM), the inhibition at 1 µM came to 85%.

`COCCOc1cc2ncnc(NC3=CC(=O)C(Oc4ccc(-n5ccnc5)cc4)=CC3=O)c2cc1OC` [Example 26, 2-[4-(1H-imidazol-1-yl)phenoxy]-5-{[6-methoxy-7-(2-methoxyethoxy)quinazolin-4-yl]amino}benzo-1,4-quinone]: the inhibition at 10 µM in series [4] (setting [6]) was determined as 89%. Besides, the “% Inhibition of VEGF-dependent growth of HUVEC” value in series [4] (conc. 10000 nM) is 96% and 99% and 95% and 87% and 91%. Moreover, in series [2] (setting [7]), the “S/T = # of Survivors/# of Treated on Day +21 post tumor staging” value was 5/5, the “% T/C Day 7” value turned out to be 84%, the “% T/C Day 14” value is 62% and the “% T/C Day 21” value is reported as 61%. Also, in series [2] (setting [7]), the “Relative tumor growth Day 7” value was 4.21, the “Relative tumor growth Day 14” value worked out at 6.93 and the “Relative tumor growth Day 21” value worked out at 10.50. Moreover, in series [2] (setting [8]), the “S/T = # of Survivors/# of Treated on Day +21 post tumor staging” value is given as 5/5, the “% T/C Day 7” value worked out at 67%, the “% T/C Day 14” value amounted to 55% and the “% T/C Day 21” value is reported as 51%. In series [2] (setting [8]), the “Relative tumor growth Day 7” value is reported as 3.36, the “Relative tumor growth Day 14” value turned out to be 6.10 and the “Relative tumor growth Day 21” value is recorded as 8.80.

`COc1cc2ncnc(NC3=CC(=O)C4(C(C)C)OC4C3=O)c2cc1OC` (stereo not shown) [Example 107, 4-[(6,7-dimethoxy-4-quinazolinyl)amino]-1-isopropyl-7-oxabicyclo[4.1.0]hept-3-ene-2,5-dione]: the melting point is 188 to 190 °C.
